Patent publication US7674813B2, “Heterocyclic sulfonamide inhibitors of beta amyloid production containing an azole” (Wyeth, priority 2004, dated 2010)

Experiments:
[1] = test system: amyloid precursor protein (APP) proteolysis; assay: Repressor Release Assay (RRA); format: cell-based; design: key to RRA data (footnote symbols): **: Inactive due to toxicity; however, this compound, at 3-4 μM, reduces Aβ levels by 50% in CHO cells transfected with human APP695 as measured by ELISA without exhibiting toxicity.; ***: Inactive; however, this compound, at 1-4 μM, reduces Aβ levels by 50% in CHO cells transfected with human APP695 as measured by ELISA without exhibiting toxicity; conditions: for fold induction at 20 µg/mL: Cricetulus griseus, CHO-K1, all compounds tested at 20 μg/mL, luciferase activity over diluent control, read-out: RRA data (Fold increase of APPI)
Experimental: The beta amyloid inhibitory activity of many of the compounds of the present invention has been determined using the Repressor Release Assay (RRA). See, Table 3 below. A compound is considered active in RRA if it leads to at least a 1.5 fold increase in luciferase activity at 20 μg/mL and is non-toxic.
The compound is considered active in RRA if it leads to at least a 1.5 fold increase in APPI as measured by an increase in luciferase activity at 20 μg/mL and is non-toxic. Shuey, D. J., Sheiffele, P., Jones, D., Cockett, M. I., and Quinet, E. M. (1999) Repressor release: a useful tool for monitoring amyloid precursor protein (APP) proteolysis in mammalian cells. Society for Neuroscience Abstracts, Vol. 25, 29th Annual Meeting of Society for Neuroscience, Miami Beach, Fla., Oct. 23-28, 1999.
CHO—K1 cells are cultured in whole DMEM media (DMEM—High Glucose with 10% fetal bovine serum, 1% Non-essential Amino Acids, and 1% Penicillin-Streptomycin) at 37° C. with 5% CO2. Two million cells are plated into 10-cm dishes 24 hrs prior to transfection.
Transient transfections are completed as recommended by Gibco BRL using their Lipofectamine Plus system. First, 6 μg of pRSVO-luc and 6 μg of APP-lacI construct DNA are added to 460 μL Opti-Mem transfection media and incubated with 30 μL Plus reagent for 15 minutes. Then, a lipid mixture of 40 μL Lipofectamine reagent and 460 μL Opti-Mem transfection media is incubated with the DNA-Plus reagent mixture for 15 minutes. During the DNA-lipid incubation, the CHO—K1 cells are washed once and covered in 5.0 mL DMEM media without Penicillin-Streptomycin. The DNA-lipid preparation is then layered onto these cells and incubated at 37° C. overnight.
One and one half million transfected cells per well (100 μL total volume) are plated into sterile, opaque Packard 96-well Cultur-Plates in clear DMEM whole media (DMEM—without phenol red) and incubated at 37° C. with 5% CO2 for 3-5 hours.
Compounds are diluted using two different protocols; one protocol is used for compounds supplied neat (weighed powder in vial) and the other protocol is used for compounds supplied in solution (20 mM in DMSO in 96-well plates). For both protocols, 25 mM Hepes and 25 mM Hepes/1% DMSO are prepared fresh to be used as diluent. The Hepes/DMSO is used as the diluent control on all experimental plates.
The following Table 1 depicts the steps for compound dilution (the last step is the addition of compound to cells/media in tissue culture plate):
Because some compounds arrive in 96-well format at 20 mM, the following Table 2 represents the protocol for their dilution (an average molecular weight of these compounds was used to calculate these dilutions and as above, the last step is the addition of compound to cells/media in tissue culture plate):
Once compounds are diluted, they are applied in duplicate on cells in tissue culture plates (prepared above). Cells are incubated with compound at 37° C. with 5% CO2 for an additional 36-48 hours.
Luciferase assays (LucLite reagent, Packard) are performed and are read on a Packard TopCount instrument. Media is removed from each 96-well plate and replaced with 100 μL PBS per well (with Mg^2+ and Ca^2+). An equal volume (100 μL) of the LucLite lysis/substrate buffer is added to each well and the plates are sealed and mixed in the dark on a rotary shaker for 15-30 minutes at room temperature. Luciferase readings are then taken on the TopCount instrument. Measurements are expressed as relative light units (RLU) and are calculated and analyzed in MS Excel as follows:
Fold Increase: amount of luciferase activity (measured in relative light units) over diluent control.
SEM: standard error of the mean for fold increase.
Activity: A compound is considered active if it results in at least a 1.5 fold increase in luciferase activity at 20 μg/mL.
Toxicity: determined by loss of signal (<0.75 fold increase).

beta amyloid protein = conditions: in vivo after oral administration; cited from earlier work
beta amyloid 40 = assay: Aβ40/42 ELISA Assay (Aβ40); format: cell-based; conditions: Cricetulus griseus; CHO cells carrying the APP-REP-NL plasmid, 22 hours, sandwich ELISA
Experimental: (§1) Compounds are diluted from DMSO stocks to 2 μM and below in a cell culture medium. Compounds are then applied to CHO cells carrying the APP-REP-NL plasmid [Sudhir et. al, J. Biolog. Chem. 267:25602-25608 (1992)] for a period of 22 hours. After the conditioning period, medium is collected, diluted in assay buffer containing protein, and samples, controls, and synthetic peptide standards are incubated on a prepared ELISA plate. Using a sandwich ELISA with antibodies specifically directed against the carboxyl terminus of beta amyloid 40 or 42 (analogous to the method reported by Haugabook et al., J. Neurosci. Methods 108:171-179 (2001) but using goat anti-mouse IgG1 (source: Southern Biotech) as the anchor, 6E10 as the capture antibody (Source: SENETEK), rabbit antiAβ40 and antiAβ42 (source: QCB) and APL-donkey anti-rabbit IgG (H+L, source: Southern Biotech) as the detection antibody), the effect of the compound treatment on the cellular production of extracellular beta amyloid is quantified. Cells treated with compound are subsequently incubated in cell culture medium containing MTS-formazan. After a short incubation period, MTS/medium containing plates are read in a spectrophotometer to determine the extent to which compound toxicity affected the cell's metabolism and ability to synthesize beta amyloid.
(§2) A. Test Samples: compound samples are supplied as 20 mM stock solutions in a 100% DMSO solution.
(§3) B. APP-REP-NL cells: Qualified cell lines are carried from week to week using 1:100 dilutions and are cultured in DMEM supplemented with 1× antibiotic/antimycotic, 200 ug/ml of G418 antibiotic, and 10% certified fetal calf serum. Cells are also banked in liquid nitrogen. Periodically, beta amyloid production is assessed, and cells are either kept in culture or replaced with progenitors at full expression.
(§4) C. Antibodies: From certified lots that have already been qualified in this assay. Antibodies are stored in small frozen aliquots at −80° C. that are thawed and used.
(§5) A compound is considered active if it has an EC50 for Aβ40 reduction of <100 μM and no toxicity at doses in the vicinity of the EC50.

beta amyloid 42 = assay: Aβ40/42 ELISA Assay (Aβ42); format: cell-based; conditions: CHO cells carrying the APP-REP-NL plasmid, 22 hours, sandwich ELISA; for EC50: Cricetulus griseus
Experimental: as §1, §2, §3, §4, §5

melting point [°C] | EC50 (beta amyloid 40) [µM] | EC50 (beta amyloid 42) [µM] | Compound | fold increase in luciferase activity ([1]; at 20 μg/mL) | beta amyloid protein levels in mice brains (beta amyloid protein) | fold induction at 20 µg/mL ([1]; transfected CHO-K1 cells) | RRA data (footnote symbols) ([1]; tested at 20 μg/mL, transfected CHO-K1 cells) | Effect on Aβ42 production (beta amyloid 42)
 |  |  | C[C@H](NC(=O)Cc1cc(F)cc(F)c1)C(=O)N[C@H](C(=O)OC(C)(C)C)c1ccccc1 [DAPT, reference compound] | 18.5-28.1 fold increase | reduce beta amyloid protein levels |  |  | 
90 to 92 |  |  | CCC(CC)C(NS(=O)(=O)c1ccc(Cl)s1)c1ccnn1Cc1ccc(O)cc1 (stereo not drawn) [Example 8, 5-Chloro-N-{2-ethyl-1-[1-(4-hydroxybenzyl)-1H-pyrazol-5-yl]butyl}thiophene-2-sulfonamide] |  |  | 4.5 |  | 
146 to 148 | 3 | 4.5 | CCC(CC)C(NS(=O)(=O)c1ccc(Cl)s1)c1ccnn1S(=O)(=O)c1ccc(C)cc1 (stereo not drawn) [Example 9, 5-Chloro-N-(2-ethyl-1-{1-[(4-methylphenyl)sulfonyl]-1H-pyrazol-5-yl}butyl)thiophene-2-sulfonamide] |  |  |  | *** | 
136 to 137 | 1.4 | 3.1 | CCC(CC)C(NS(=O)(=O)c1ccc(Cl)s1)c1ncnn1Cc1ccc(OC)cc1 (stereo not drawn) [Example 21, 5-Chloro-N-{2-ethyl-1-[1-(4-methoxybenzyl)-1H-1,2,4-triazol-5-yl]butyl}thiophene-2-sulfonamide] |  |  | 10.8 |  | 
138 to 139 | 5.2 | 13.2 | CC(C)C(NS(=O)(=O)c1ccc(Cl)s1)c1ncnn1Cc1ccccc1 (stereo not drawn) [Example 23, N-[1-(1-Benzyl-1H-1,2,4-triazol-5-yl)-2-methylpropyl]-5-chlorothiophene-2-sulfonamide] |  |  | 1.8 |  | 
124 to 125 | 6 | 11 | Cc1ccc(Cn2ncnc2C(NS(=O)(=O)c2ccc(Cl)s2)C(C)C)cc1 (stereo not drawn) [Example 24, 5-Chloro-N-{2-methyl-1-[1-(4-methylbenzyl)-1H-1,2,4-triazol-5-yl]propyl}thiophene-2-sulfonamide] |  |  | 1.8 |  | 
123 to 124 | 42.5 | 90 | CC(NS(=O)(=O)c1ccc(Cl)s1)c1ncnn1Cc1ccccc1 (stereo not drawn) [Example 25, N-[1-(1-Benzyl-1H-1,2,4-triazol-5-yl)ethyl]-5-chlorothiophene-2-sulfonamide] |  |  | 6.6 |  | 
116 to 117 | 9.6 | 15.5 | Cc1ccc(Cn2ncnc2C(C)NS(=O)(=O)c2ccc(Cl)s2)cc1 (stereo not drawn) [Example 26, 5-Chloro-N-{1-[1-(4-methylbenzyl)-1H-1,2,4-triazol-5-yl]ethyl}thiophene-2-sulfonamide] |  |  | 5.6 |  | 
103 to 104 | 2.7 | 6.2 | CCC(CC)C(NS(=O)(=O)c1ccc(Cl)s1)c1ncnn1Cc1ccc(C)cc1 (stereo not drawn) [Example 27, 5-Chloro-N-{2-ethyl-1-[1-(4-methylbenzyl)-1H-1,2,4-triazol-5-yl]butyl}thiophene-2-sulfonamide] |  |  | 13 |  | 
102 to 103 | 26.7 |  | CC(C)C(NS(=O)(=O)c1ccc(Cl)s1)c1cccn1Cc1ccccc1 (stereo not drawn) [Example 31, N-[1-(1-Benzyl-1H-pyrrol-2-yl)-2-methylpropyl]-5-chlorothiophene-2-sulfonamide] |  |  | 5.3 |  | increase
125.8 to 127.6 | 70.1 |  | CCC(CC)C(c1ccnn1-c1ccccc1)N(C)S(=O)(=O)c1ccc(Cl)s1 (stereo not drawn) [Example 46, 5-Chloro-N-[2-ethyl-1-(1-phenyl-1H-pyrazol-5-yl)butyl]-N-methylthiophene-2-sulfonamide] |  |  |  |  | increase
102.1 to 104.1 | 61.2 |  | CCC(CC)C(c1ccnn1-c1ccccc1)N(C)S(=O)(=O)c1ccc(Cl)c(Cl)c1 (stereo not drawn) [Example 47, 3,4-Dichloro-N-[2-ethyl-1-(1-phenyl-1H-pyrazol-5-yl)butyl]-N-methylbenzenesulfonamide] |  |  |  |  | increase
115.6 to 118 | 65.1 |  | CCC(CC)C(c1ccnn1-c1ccccc1)N(C)S(=O)(=O)c1ccc(Br)s1 (stereo not drawn) [Example 48, 5-Bromo-N-[2-ethyl-1-(1-phenyl-1H-pyrazol-5-yl)butyl]-N-methylthiophene-2-sulfonamide] |  |  |  |  | increase
